The record followed here is patent US20260083851A1 (AVILAR THERAPEUTICS, INC., priority 2022, published 2026).

Where two headings read alike, the source gives them in different places.

This assay has as its target T1, ASGP receptor (biotinylated ASGPR) (Homo sapiens, UniProt P07306).
T1 construct: biotin (biotinylated)
T1 sequence (P07306 1-291): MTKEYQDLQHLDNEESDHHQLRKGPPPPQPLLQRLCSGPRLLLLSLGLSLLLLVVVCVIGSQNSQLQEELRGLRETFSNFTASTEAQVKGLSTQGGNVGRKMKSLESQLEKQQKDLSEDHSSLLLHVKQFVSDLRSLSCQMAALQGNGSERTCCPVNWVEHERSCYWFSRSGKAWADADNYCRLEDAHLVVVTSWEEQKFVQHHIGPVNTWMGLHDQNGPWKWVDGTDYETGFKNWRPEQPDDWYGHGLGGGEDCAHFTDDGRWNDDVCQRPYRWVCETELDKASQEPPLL
It is filed as binding. The note with it: SPR, Biacore 8K, 25° C. Background: Surface plasmon resonance follows binding to a sensor surface in real time, without labels.

[1] abbreviates: Table 1D, numeric bound, read-out: ASGPR KD.

With `O=C(c1ccc(C(F)(F)F)cn1)N1C[C@H](Nc2cncc(C(F)(F)F)n2)[C@@H](O)[C@@H](O)C1` [A378], the Kd (Table 1D, read-out: ASGPR KD) was < 10 µM.

On to `O[C@@H]1[C@H](O)[C@@H](Nc2cccc(C(F)(F)F)n2)CO[C@@H]1CN1CCC1` [A279], for which the Kd (Table 1C, read-out: ASGPR KD) was < 10 µM. For the compound `O=C(OCc1ccccc1)N1C[C@H](O)[C@H](O)[C@@H](S(=O)(=O)c2cncc(C(F)(F)F)n2)C1` [A358], under setting [1], the Kd is > 30 µM.

For `C#C[C@H]1OC[C@H](Oc2cccc(C(F)(F)F)n2)[C@@H](O)[C@H]1O` [A219, (2R,3R,4S,5S)-2-ethynyl-5-((6-(trifluoromethyl)pyridin-2-yl)oxy)tetrahydro-2H-pyran-3,4-diol], the dissociation constant (Kd) (Table 1C, read-out: ASGPR KD) is < 10 µM. Still for that read-out and setting: next, `O=C(O)c1ccc(OC[C@H]2OC[C@H](Nc3cccc(C(F)(F)F)n3)[C@@H](O)[C@H]2O)nn1` [A317]: < 10 µM; `O=C(O)c1ccc(-c2ccc(OC[C@H]3OC[C@H](Oc4cccc(C(F)(F)F)n4)[C@@H](O)[C@H]3O)cc2)cc1` [A228, 4′-(((2R,3R,4S,5S)-3,4-dihydroxy-5-((6-(trifluoromethyl)pyridin-2-yl)oxy)tetrahydro-2H-pyran-2-yl)methoxy)-[1,1′-biphenyl]-4-carboxylic acid]: < 10 µM. Regarding `O=C(O)c1ccc(C(=O)NC[C@H]2OC[C@H](Nc3cncc(C(F)(F)F)n3)[C@@H](O)[C@H]2O)cc1` [A34, 4-((((2R,3R,4R,5S)-3,4-dihydroxy-5-((6-(trifluoromethyl)pyrazin-2-yl)amino)tetrahydro-2H-pyran-2-yl)methyl)carbamoyl)benzoic acid], under “Table 1A, read-out: ASGPR KD”, the equilibrium dissociation constant (Kd) was < 10 µM. For the compound `O[C@@H]1[C@@H](Nc2cccc(C(F)(F)F)n2)[C@H]2OC[C@](COc3cccnn3)(O2)[C@@H]1O` [A295], the Kd (Table 1C, read-out: ASGPR KD) is < 10 µM. Consider `O=C(NC[C@H]1OC[C@H](Nc2cncc(C(F)(F)F)n2)[C@@H](O)[C@H]1O)c1ncc2cc[nH]c2n1` [A78, N-(((2R,3R,4R,5S)-3,4-dihydroxy-5-((6-(trifluoromethyl)pyrazin-2-yl)amino)tetrahydro-2H-pyran-2-yl)methyl)-7H-pyrrolo[2,3-d]pyrimidine-2-carboxamide], for which the Kd (Table 1A, read-out: ASGPR KD) was < 10 µM.

Regarding `CN1CCN(C[C@H]2OC[C@H](Oc3cccc(C(F)(F)F)n3)[C@@H](O)[C@H]2O)CC1` [A249], the Kd (Table 1C, read-out: ASGPR KD) is < 10 µM. With `O=C(O)c1cnc(OC[C@@]23CO[C@@H](O2)[C@H](Nc2cncc(C(F)(F)F)n2)[C@@H](O)[C@H]3O)cn1` [A452], the Kd (Table 1E, read-out: ASGPR KD) is < 10 µM. On to `O=C(OCc1ccccc1)N1C[C@H](Nc2ccnc(C(F)(F)F)n2)[C@@H](O)[C@@H](O)C1` [A375], for which the Kd (Table 1D, read-out: ASGPR KD) is < 10 µM. Regarding `O[C@@H]1[C@H](O)[C@@H](Oc2cccc(C(F)(F)F)n2)[C@@H](c2ccccc2)O[C@@H]1C(F)F` [A330], the Kd (Table 1C, read-out: ASGPR KD) is < 10 µM.

With `O=C(NC[C@H]1OC[C@H](Nc2cncc(C(F)(F)F)n2)[C@@H](O)[C@H]1O)c1cnc(-c2ccccc2)nc1` [A89], the equilibrium dissociation constant (Kd) (Table 1A, read-out: ASGPR KD) is < 10 µM.

For the compound `O=C(O)CN1CCC(N2CCC(C(=O)NC[C@H]3OC[C@H](Nc4cncc(C(F)(F)F)n4)[C@@H](O)[C@H]3O)CC2)CC1` [A62, 2-(4-((((2R,3R,4R,5S)-3,4-dihydroxy-5-((6-(trifluoromethyl)pyrazin-2-yl)amino)tetrahydro-2H-pyran-2-yl)methyl)carbamoyl)-[1,4′-bipiperidin]-1′-yl)acetic acid], the Kd (Table 1A, read-out: ASGPR KD) is < 10 µM.

As to `O=C(OCc1ccccc1)N1C[C@H](Nc2ccc(C(F)(F)F)cn2)[C@@H](O)[C@@H](O)C1` [A374], the Kd under setting [1] was > 30 µM. As to `O[C@@H]1[C@H](O)[C@@H](Nc2cccc(C(F)(F)F)n2)CO[C@@H]1COc1ccc(-c2ccccc2)cc1` [A196, (2R,3R,4R,5S)-2-(([1,1′-biphenyl]-4-yloxy)methyl)-5-((6-(trifluoromethyl)pyridin-2-yl)amino)tetrahydro-2H-pyran-3,4-diol], under “Table 1C, read-out: ASGPR KD”, the Kd was < 10 µM. As to `O[C@@H]1[C@H](O)[C@@H](Nc2cncc(C(F)(F)F)n2)CO[C@@H]1COc1ccc(-c2ccccc2)cc1` [A202, (2R,3R,4R,5S)-2-(([1,1′-biphenyl]-4-yloxy)methyl)-5-((6-(trifluoromethyl)pyrazin-2-yl)amino)tetrahydro-2H-pyran-3,4-diol], the Kd (Table 1C, read-out: ASGPR KD) is < 10 µM. As to `O=C(O)c1ccc(-c2ccc(C(=O)NC[C@H]3OC[C@H](Nc4cncc(C(F)(F)F)n4)[C@@H](O)[C@H]3O)cc2)cc1` [A38, 4′-((((2R,3R,4R,5S)-3,4-dihydroxy-5-((6-(trifluoromethyl)pyrazin-2-yl)amino)tetrahydro-2H-pyran-2-yl)methyl)carbamoyl)-[1,1′-biphenyl]-4-carboxylic acid], the equilibrium dissociation constant (Kd) (Table 1A, read-out: ASGPR KD) is < 10 µM. With `[O-][n+]1c(O[C@H]2CO[C@H](CSc3ccccc3)[C@H](O)[C@@H]2O)cccc1C(F)(F)F` [A312], the Kd (Table 1C, read-out: ASGPR KD) is < 10 µM. Take `O[C@@H]1[C@H](O)[C@@H](Nc2cncc(C(F)(F)F)n2)CO[C@@H]1CN1CCN(Cc2ccccc2)CC1` [A9, (2R,3R,4R,5S)-2-((4-benzylpiperazin-1-yl)methyl)-5-((6-(trifluoromethyl)pyrazin-2-yl)amino)tetrahydro-2H-pyran-3,4-diol]: the Kd (Table 1A, read-out: ASGPR KD) was < 10 µM.

For the compound `OC[C@H]1OC[C@H](Nc2ncc3c(n2)CCC3)[C@@H](O)[C@H]1O` [A182, (2R,3R,4R,5S)-5-((6,7-dihydro-5H-cyclopenta[d]pyrimidin-2-yl)amino)-2-(hydroxymethyl)tetrahydro-2H-pyran-3,4-diol], the dissociation constant Kd (Table 1C, numeric bound, read-out: ASGPR KD) is > 30 µM.

With `O=C(O)CNC(COCCC(=O)NCCOCCOCCOCCO[C@@H]1O[C@H](CO)[C@H](O)[C@H](O)[C@H]1Nc1cncc(C(F)(F)F)n1)COCCC(=O)NCCOCCOCCOCCO[C@@H]1O[C@H](CO)[C@H](O)[C@H](O)[C@H]1Nc1cncc(C(F)(F)F)n1` [A35, (1,35-bis(((2R,3R,4R,5R,6R)-4,5-dihydroxy-6-(hydroxymethyl)-3-((6-(trifluoromethyl)pyrazin-2-yl)amino)tetrahydro-2H-pyran-2-yl)oxy)-13,23-dioxo-3,6,9,16,20,27,30,33-octaoxa-12,24-diazapentatriacontan-18-yl)glycine], the Kd (Table 1A, read-out: ASGPR KD) is < 10 µM. Regarding `O=C(O)COc1ccc(CC(=O)NC[C@H]2OC[C@H](Nc3cncc(C(F)(F)F)n3)[C@@H](O)[C@H]2O)cc1` [A1, 2-(4-(2-((((2R,3R,4R,5S)-3,4-dihydroxy-5-((6-(trifluoromethyl)pyrazin-2-yl)amino)tetrahydro-2H-pyran-2-yl)methyl)amino)-2-oxoethyl)phenoxy)acetic acid], the Kd (Table 1A, read-out: ASGPR KD) was < 10 µM.

For the compound `O=C(O)c1ccc(N2CCC(CN3CCN(C[C@H]4OC[C@H](Nc5cncc(C(F)(F)F)n5)[C@@H](O)[C@H]4O)CC3)CC2)cc1` [A31, 4-(4-((4-(((2R,3R,4R,5S)-3,4-dihydroxy-5-((6-(trifluoromethyl)pyrazin-2-yl)amino)tetrahydro-2H-pyran-2-yl)methyl)piperazin-1-yl)methyl)piperidin-1-yl)benzoic acid], the Kd (Table 1A, read-out: ASGPR KD) was < 10 µM. As for `C[C@H]1O[C@@H](c2ncncc2F)[C@H](Oc2cccc(C(F)(F)F)n2)[C@@H](O)[C@H]1O` [A337], the Kd (Table 1C, read-out: ASGPR KD) was < 10 µM. Consider `O[C@@H]1[C@@H](Oc2cccc(C(F)(F)F)n2)CN(c2ccncn2)C[C@@H]1O` [Compound A248], for which, under “Table 1D, read-out: ASGPR KD”, the dissociation constant (Kd) is < 10 µM. Consider `O=C(NC[C@H]1OC[C@H](Nc2cncc(C(F)(F)F)n2)[C@@H](O)[C@H]1O)c1ncc(-c2ccccc2)cn1` [A75, N-(((2R,3R,4R,5S)-3,4-dihydroxy-5-((6-(trifluoromethyl)pyrazin-2-yl)amino)tetrahydro-2H-pyran-2-yl)methyl)-5-phenylpyrimidine-2-carboxamide], for which, for the setting “Table 1A, read-out: ASGPR KD”, the dissociation constant Kd is < 10 µM.

Consider `O=C(NC[C@H]1OC[C@H](Nc2cncc(C(F)(F)F)n2)[C@@H](O)[C@H]1O)c1ccccc1` [A36, N-(((2R,3R,4R,5S)-3,4-dihydroxy-5-((6-(trifluoromethyl)pyrazin-2-yl)amino)tetrahydro-2H-pyran-2-yl)methyl)benzamide], for which the Kd (Table 1A, read-out: ASGPR KD) is < 10 µM. Turning to `O[C@@H]1[C@H](O)[C@@H](Oc2cccc(C(F)(F)F)n2)CO[C@@H]1CN1Cc2ccccc2C1` [A274], the dissociation constant (Kd) (Table 1C, read-out: ASGPR KD) was < 10 µM.

On to `O=C(O)COCCOCC(=O)NC[C@H]1OC[C@H](Nc2ccnc(C(F)(F)F)n2)[C@@H](O)[C@H]1O` [A116, 2-(2-(2-((((2R,3R,4R,5S)-3,4-dihydroxy-5-((2-(trifluoromethyl)pyrimidin-4-yl)amino)tetrahydro-2H-pyran-2-yl)methyl)amino)-2-oxoethoxy)ethoxy)acetic acid], for which the equilibrium dissociation constant (Kd) (Table 1A, read-out: ASGPR KD) is < 10 µM.

For the compound `CC(C)(C)OC(=O)N1CC=C(c2cccc(N[C@H]3CO[C@H](CO)[C@H](O)[C@@H]3O)n2)CC1` [A195, tert-butyl 6-(((3S,4R,5R,6R)-4,5-dihydroxy-6-(hydroxymethyl)tetrahydro-2H-pyran-3-yl)amino)-3′,6′-dihydro-[2,4′-bipyridine]-1′(2′H)-carboxylate], the Kd (Table 1C, read-out: ASGPR KD) is < 10 µM.

`O[C@@H]1[C@H](O)[C@@H](Nc2cncc(F)n2)CO[C@@H]1COc1cncc(F)n1` [A154, (2R,3R,4R,5S)-5-((6-fluoropyrazin-2-yl)amino)-2-(((6-fluoropyrazin-2-yl)oxy)methyl)tetrahydro-2H-pyran-3,4-diol]: for the setting “Table 1B, read-out: ASGPR Kd”, the dissociation constant Kd is < 10 µM.

For the compound `O=C1c2ccccc2CN1C[C@H]1OC[C@H](Oc2cccc(C(F)(F)F)n2)[C@@H](O)[C@H]1O` [A265], the Kd (Table 1C, read-out: ASGPR KD) is < 10 µM. For the compound `C[C@H]1O[C@@H](c2ccc(N3CCNCC3)cc2)[C@H](Oc2cccc(C(F)(F)F)n2)[C@@H](O)[C@H]1O` [A303], the Kd (Table 1C, read-out: ASGPR KD) is < 10 µM. The same measure, in the same setting: next, `C[C@H]1O[C@@H](c2ccccn2)[C@H](Oc2cccc(C(F)(F)F)n2)[C@@H](O)[C@H]1O` [A336]: < 10 µM.

As usually defined, the Kd is the equilibrium constant for the complex coming apart.
